Here are results for one molecule from US4339576A, “Anti-asthmatic, anti-allergic, anti-cholinergic, bronchodilator and anti-inflammatory 1-[(benzoylphenyl)-lower-alkyl]piperidines and analogs thereof” (Sterling Drug Inc., priority 1981, dated 1982).

Assay [1] deals with passive cutaneous anaphylaxis. The assay can be described thus: Passive cutaneous anaphylaxis test (PCA). Format: in vivo. The note with it: rats. Also noted: key: Actv.: active; Weak: weakly active; Inac.: inactive.
The test system of assay [2] is carrageenin-induced foot edema. Nature of the assay: Inhibition of carrageenin-induced foot edema (C.E.). In kind it is in vivo, rats. Particulars: Rattus norvegicus, oral, rats, read-out: percent inhibition, C.E. For orientation: In the carrageenan paw model, swelling and tenderness develop within hours.
Procedure: Anti-inflammatory activity was determined using (1) the inhibition of carrageenin-induced foot edema test described by Winter et al., Proc. Soc.
All data were obtained on oral administration in rats.
Assay [3] concerns acetylcholine-induced abdominal constriction. Nature of the assay: Acetylcholine-induced abdominal constriction test (Ach). Format: in vivo, mice. The note with it: Mus musculus, po.
The subject of assay [4] is adjuvant-induced arthritis. Nature of the assay: Inhibition of adjuvant-induced arthritis (A.A.). In kind it is in vivo. The note with it: Rattus norvegicus; .08 millimoles/kg, oral, rats; read-out: percent inhibition, A.A.
The test system of the next assay is bradykinin. The assay can be described thus: Anti-bradykinin test (BDK). In kind it is in vivo. Particulars: po.
Assay [5] deals with histamine induced bronchoconstriction. The assay can be described thus: Histamine induced bronchoconstriction test in anesthetized dogs. Format: in vivo. Particulars: Canis lupus familiaris, intraduodenal, intraduodenally, read-out: AED40 (Approximate Effective Dose resulting in 40% inhibition of bronchoconstriction).
For the next assay, the system named is human basophils. The assay can be described thus: In vitro histamine release from human basophils test. Particulars: read-out: AEC50 (Approximate Effective Concentration resulting in 50% inhibition of allergic release of histamine). Format: cell-based.

Structures are written as SMILES.

One may read the ED50 as the dose at which the effect has come halfway, by size or by number of responders. As for `CC(=O)NC1CCN(CC(C)c2ccc(C(=O)c3ccccc3)cc2)CC1.Cl.O` (centres unmarked) [Example 3C, 1-[2-(4-Benzoylphenyl)propyl]-4-acetylaminopiperidine hydrochloride monohydrate], the “PCA activity (qualitative statement)” value in assay [1] is recorded as “Inac”. For the same molecule, the inhibition in vivo at 80 µmol/kg stood at 41% in assay [2] (.08 millimoles/kg) and 19% in assay [4]. Besides, in assay [2] (.324 millimoles/kg), the inhibition in vivo at 324 µmol/kg was found to be 53%. In addition, the results for the ED50 (in assay [3]; in the assay on bradykinin) were 5.6 mg/kg and 46 mg/kg, respectively. Moreover, in assay [5], the ED40 was ~5 mg/kg. In addition, the EC50 in the assay on human basophils was > 10 µM.
